Values of other authors in Sander's compilation of Henry's law constants (doi:10.1016/s0016-7037(99)00330-0).

Experiment: Henry solubility constant Hcp at 298.15 K (mol/(m3 Pa))
Settings: reference: Plyasunov and Shock (2000); cited value

Row | Compound | Henry solubility constant Hcp
1 | CC1CCCC(C)(C)C1 (stereo not drawn) [1,1,3-trimethylcyclohexane] | 9.3e-06
2 | CC1CCC(C)(C)C1 (stereo not drawn) [1,1,3-trimethylcyclopentane] | 6.2e-06
3 | c1ccc2c(c1)CCCC2 [1,2,3,4-tetrahydronaphthalene] | 0.0064
4 | Cc1cccc(C)c1C [1,2,3-trimethylbenzene] | 0.0026
5 | Cc1ccc(C)c(C)c1 [1,2,4-trimethylbenzene] | 0.0016
6 | Cc1ccccc1C [1,2-dimethylbenzene] | 0.002
7 | C1=CC=CCC=C1 [1,3,5-cycloheptatriene] | 0.0022
8 | Cc1cc(C)cc(C)c1 [1,3,5-trimethylbenzene] | 0.0013
9 | C=CC=C [1,3-butadiene] | 0.00014
10 | C1=CCC=C1 [1,3-cyclopentadiene] | 0.00018
11 | Cc1cccc(C)c1 [1,3-dimethylbenzene] | 0.0014
12 | C1=CCC=CC1 [1,4-cyclohexadiene] | 0.001
13 | Cc1ccc(C)cc1 [1,4-dimethylbenzene] | 0.0014
14 | C#CCCCC#C [1,6-heptadiyne] | 0.0046
15 | C#CCCCCCC#C [1,8-nonadiyne] | 0.003
16 | CCCCCCCO [1-heptanol] | 0.54
17 | C#CCCCCC [1-heptyne] | 0.00018
18 | CCCCCCO [1-hexanol] | 0.66
19 | Cc1ccccc1C(C)C [1-methyl-2-(1-methylethyl)-benzene] | 0.0016
20 | Cc1cccc(C(C)C)c1 [1-methyl-3-(1-methylethyl)-benzene] | 0.0014
21 | C=C(C)C1CC=C(C)CC1 (stereo not drawn) [1-methyl-4-(1-methylethenyl)-cyclohexene] | 0.00047
22 | CC1=CC=C(C(C)C)CC1 [1-methyl-4-(1-methylethyl)-1,3-cyclohexadiene] | 0.00051

Row | Compound | Henry solubility constant Hcp
23 | Cc1ccc(C(C)C)cc1 [1-methyl-4-(1-methylethyl)-benzene] | 0.00096
24 | CC1=CCC(=C(C)C)CC1 [1-methyl-4-(1-methylethylidene)-cyclohexene] | 0.00079
25 | CC1=CCCCC1 [1-methylcyclohexene] | 0.00014
26 | C#CCCCCCCC [1-nonyne] | 9.7e-05
27 | CCCCCCCCO [1-octanol] | 0.41
28 | C#CCCCCCC [1-octyne] | 0.00012
29 | CC(C)CC(C)(C)C [2,2,4-trimethylpentane] | 3e-06
30 | CC(C)(C)C#CC(C)(C)C [2,2,5,5-tetramethyl-3-hexyne] | 3.4e-05
31 | CC(C)C#CC(C)(C)C [2,2,5-trimethyl-3-hexyne] | 5.5e-05
32 | CC(C)CCC(C)(C)C [2,2,5-trimethylhexane] | 2.8e-06
33 | CCC#CC(C)(C)C [2,2-dimethyl-3-hexyne] | 0.00014
34 | C=C1C2CCC(C2)C1(C)C (stereo not drawn) [2,2-dimethyl-3-methylene-bicyclo[2.2.1]heptane] | 0.00023
35 | CC(C)C(C)C(C)C [2,3,4-trimethylpentane] | 4.3e-06
36 | CC(C)C(C)(C)O [2,3-dimethyl-2-butanol] | 0.38
37 | CC(C)C(C)C [2,3-dimethylbutane] | 7.6e-06
38 | CC(C)CC(C)C [2,4-dimethylpentane] | 3.3e-06
39 | CCCCC(CC)CO (stereo not drawn) [2-ethyl-1-hexanol] | 0.46
40 | CCCCCC(C)O (stereo not drawn) [2-heptanol] | 0.41
41 | C=CC(=C)C [2-methyl-1,3-butadiene] | 0.00013
42 | CC(C)CO [2-methyl-1-propanol] | 0.85
43 | CCC(C)(C)O [2-methyl-2-butanol] | 0.71
44 | CC=C(C)C [2-methyl-2-butene] | 6.7e-05

Row | Compound | Henry solubility constant Hcp
45 | CC(C)C [2-methylpropane] | 9.2e-06
46 | CCCCCCC(C)O (stereo not drawn) [2-octanol] | 0.35
47 | CC(C)O [2-propanol] | 1.2
48 | CCC(O)(CC)CC [3-ethyl-3-pentanol] | 0.3
49 | CCCCC(O)CC (stereo not drawn) [3-heptanol] | 0.31
50 | CC(C)CCO [3-methyl-1-butanol] | 0.7
51 | CCCCC(C)CC (stereo not drawn) [3-methylheptane] | 2.7e-06
52 | CCCC(O)CCC [4-heptanol] | 0.34
53 | CC(C)CC(C)O (stereo not drawn) [4-methyl-2-pentanol] | 0.35
54 | C=C1CCC2(C(C)C)CC12 (stereo not drawn) [4-methylene-1-(1-methylethyl)-bicyclo[3.1.0]hexane] | 0.00015
55 | CCCCC(C)CCC (stereo not drawn) [4-methyloctane] | 9.7e-07
56 | CC(C)(C)c1ccccc1 [(1,1-dimethylethyl)-benzene] | 0.00079
57 | CCC(C)c1ccccc1 (stereo not drawn) [(1-methylpropyl)-benzene] | 0.00053
58 | CC(C)Cc1ccccc1 [(2-methylpropyl)-benzene] | 0.00029
59 | CC(C)c1ccccc1 [(2-propyl)-benzene] | 0.00084
60 | c1ccccc1 [benzene] | 0.0018
61 | CCCCc1ccccc1 [butylbenzene] | 0.00071
62 | C[C@@H]1CCCC[C@@H]1C [cis-1,2-dimethylcyclohexane] | 2.8e-05
63 | C1CCCCCC1 [cycloheptane] | 0.0001
64 | OC1CCCCCC1 [cycloheptanol] | 4.6
65 | C1=CCCCCC1 [cycloheptene] | 0.0002
66 | C1CCCCC1 [cyclohexane] | 5.3e-05

Row | Compound | Henry solubility constant Hcp
67 | C1=CCCCC1 [cyclohexene] | 0.00022
68 | C1CCCCCCC1 [cyclooctane] | 9.3e-05
69 | C1CCCC1 [cyclopentane] | 5.5e-05
70 | OC1CCCC1 [cyclopentanol] | 4.2
71 | C1=CCCC1 [cyclopentene] | 0.00016
72 | C1CC1 [cyclopropane] | 0.00012
73 | CCCCCCCCCC [decane] | 1.1e-06
74 | CCCCCCCCCCc1ccccc1 [decylbenzene] | 8.6e-05
75 | CC(C)(C)C [dimethylpropane] | 6e-06
76 | CCCCCCCCCCCC [dodecane] | 1.2e-06
77 | C=C [ethene] | 4.8e-05
78 | C=Cc1ccccc1 [ethenylbenzene] | 0.0029
79 | CCc1ccccc1 [ethylbenzene] | 0.0013
80 | C#C [ethyne] | 0.00041
81 | CCCCCCc1ccccc1 [hexylbenzene] | 0.0004
82 | Cc1ccccc1 [methylbenzene] | 0.0016
83 | CC1CCCCC1 [methylcyclohexane] | 2.4e-05
84 | CC1CCCC1 [methylcyclopentane] | 2.8e-05
85 | CCCCCCCCC [nonane] | 2.1e-06
86 | CCCCCCCC [octane] | 4e-06
87 | CCCCCc1ccccc1 [pentylbenzene] | 0.00051

The next lines start with the values.

Row | Henry solubility constant Hcp | Compound
88 | 5.6e-05 | C=CCCCC=C [1,6-heptadiene]
89 | 4.2e-05 | C=CCC [1-butene]
90 | 0.00062 | C#CCC [1-butyne]
91 | 2.5e-05 | C=CCCCCC [1-heptene]
92 | 0.0003 | C#CCCCC [1-hexyne]
93 | 1.2e-05 | C=CCCCCCCC [1-nonene]
94 | 1.1e-05 | C=CCCCCCC [1-octene]
95 | 0.89 | CCCCCO [1-pentanol]
96 | 2.4e-05 | C=CCCC [1-pentene]
97 | 1.5 | CCCO [1-propanol]
98 | 5.6e-06 | CCC(C)(C)C [2,2-dimethylbutane]
99 | 3.1e-06 | CCCC(C)(C)C [2,2-dimethylpentane]
100 | 5.7e-06 | CCC(C)C(C)C (stereo not drawn) [2,3-dimethylpentane]
101 | 0.99 | CCC(C)O (stereo not drawn) [2-butanol]
102 | 0.54 | CCC(CC)CO [2-ethyl-1-butanol]
103 | 2.3e-05 | CC=CCCCC [2-heptene]
104 | 0.00049 | CC#CCCCC [2-heptyne]
105 | 0.52 | CCCCC(C)O (stereo not drawn) [2-hexanol]
106 | 0.71 | CCC(C)CO (stereo not drawn) [2-methyl-1-butanol]
107 | 3.3e-05 | C=C(C)CCC [2-methyl-1-pentene]
108 | 0.00022 | CCC#CC(C)C [2-methyl-3-hexyne]

Row | Henry solubility constant Hcp | Compound
109 | 7.7e-06 | CCC(C)C [2-methylbutane]
110 | 2.9e-06 | CCCCC(C)C [2-methylhexane]
111 | 5.7e-06 | CCCC(C)C [2-methylpentane]
112 | 5.7e-05 | C=C(C)C [2-methylpropene]
113 | 0.65 | CCCC(C)O (stereo not drawn) [2-pentanol]
114 | 5.3e-06 | CCC(C)(C)CC [3,3-dimethylpentane]
115 | 0.00041 | C#CC=C [3-buten-1-yne]
116 | 0.42 | CCCC(O)CC (stereo not drawn) [3-hexanol]
117 | 0.00055 | CCC#CCC [3-hexyne]
118 | 1.9e-05 | C=CC(C)C [3-methyl-1-butene]
119 | 4.5e-06 | CCCC(C)CC (stereo not drawn) [3-methylhexane]
120 | 5.9e-06 | CCC(C)CC [3-methylpentane]
121 | 0.55 | CCC(O)CC [3-pentanol]
122 | 1.5e-05 | C=CCC(C)C [4-methyl-1-pentene]
123 | 0.0004 | C=CC(=C)CCC=C(C)C [7-methyl-3-methylene-1,6-octadiene]
124 | 1.2e-05 | CCCC [butane]
125 | 1.9 | CCO [ethanol]
126 | 4.9e-06 | CCCCCCC [heptane]
127 | 6.9e-06 | CCCCCC [hexane]
128 | 8.7e-06 | CCCCC [pentane]
